From patent EP0738513A1, “Method for using ergoline compounds to effect physiological and pathological functions at the 5-HT7 receptor” (ELI LILLY AND COMPANY, priority 1995, dated 1996)
Read-outs that look alike come from different tables or passages of the source.

Key:
[1] = system: 5-HT7 receptor in the dog coronary artery; experiment: antagonism of 5-HT-induced relaxation in endothelium-denuded canine coronary artery rings precontracted with PGF2α; assay type: cell-based, mongrel dogs; conditions: for relaxant activity as agonist in canine coronary artery: agonist alone; for pA2 (-log KB): antagonist dissociation constant against 5-HT-induced relaxation, Schild analysis for compounds II and IV
Protocol: (§1) Hearts were obtained from mongrel dogs anesthetized with sodium pentobarbital (30mg/kg, i.v.) and placed in oxygenated modified Krebs' solution of the following composition (millimolar): NaCl, 118; KCl, 4.6; CaCl2, 1.6; KH2PO4, 1.2; MgSO4 1.2, glucose, 10; NaHCO3 24.8 (pH 7.4). The left anterior descending and circumflex coronary arteries were dissected from the hearts, cleaned of fat and adhering tissue and cut into rings (approximately 2-3mm outer diameter and 4-5mm in length). The intimal surface of the rings was gently rubbed with a pair of forceps to remove the endothelium. Tissues were then mounted between two stainless steel hooks and placed in 10ml organ chambers constantly exposed to oxygenated modified Krebs' solution (95% O2/5% CO2; pH 7.4; 37°C). Tissues were equilibrated for 1 hour under an initial optimal passive force of 4g determined previously from length-tension experiments. The buffer was replaced every 15 minutes during equilibration. Isometric force was measured with Statham UC3 force transducers connected to a Beckman dynograph (R611). After lhr equilibration, tissues were depolarized twice with 50mM KCl for 30min with a 20min washing period between. The integrity of the endothelium was examined with acetylcholine (1µM), bradykinin (100nM), or the ionophore A23187 (1µM). Rings that relaxed to these agents were not used in this study.
(§2) Tissues prepared as described in Example 1 were precontracted with PGF2α (10µM) which produced a tonic contraction that remained at or above 92.8±2.1% (n=14) of the original maximum force throughout the experiment. Cumulative concentration-response curves to 5-HT were generated in tissues incubated with either vehicle or antagonist for 1hr. In some experiments contraction was measured in tissues under basal tone upcn the cumulative addition of 5-HT. These tissues were treated with prazosin (1µM) to block any potential α adrenoceptor activation and in the absence or presence of antagonist.
(§3) All results are expressed as mean ± S.E. where "n" represents the number of rings examined. No more than two rings were used from each animal for each compound studied. The relaxation data is expressed as percent relaxation of the contraction produced by PGF2α . The contraction data is expressed as percent of a maximal KCl (50mM) contraction. The EC50 was the concentration of the agonist producing half-maximal response and was determined by least squares linear regression analysis of the linear portion of the agonist concentration-response curve and expressed as -log EC50 (pEC50).
Apparent antagonist dissociation constants (KB) were determined for each antagonist according to the following equation: KB =((B))/((dose ratio -1)) [formula] where (B) is the concentration of the antagonist and dose ratio is the EC50 of the agonist in the presence of the antagonist divided by the EC50 of the agonist in vehicle treated tissues. […] Significant differences between vehicle and antagonist treated tissues were determined with Student's t-test. The alpha value was set a priori at 0.05.
The data was also analyzed in accord with the procedure of Arunlakshana and Schild (1959). The dose ratio was determined at various concentrations of antagonist compound II or compound IV. If blockade is competitive under equilibrium conditions a plot of the logarithm (dose ratio - 1) against the negative logarithm of the molar concentration of antagonist should yield a straight line whose slope is not different from unity and whose intercept on the abscissa is the pA2, which is generally considered to be equivalent to -log KB.

[2] = system: endothelium denuded canine coronary artery; experiment: agonist-induced contraction in endothelium-denuded canine coronary artery under basal tone; assay type: cell-based, mongrel dogs; conditions: for contractile response as agonist: no antagonist
Protocol: as §1, §2, §3

human 5-HT7 receptor = human 5-HT7 receptor (Homo sapiens, UniProt P34969); experiment: receptor binding studies at the human 5-HT7 receptor
Chain of human 5-HT7 receptor (P34969 whole entry): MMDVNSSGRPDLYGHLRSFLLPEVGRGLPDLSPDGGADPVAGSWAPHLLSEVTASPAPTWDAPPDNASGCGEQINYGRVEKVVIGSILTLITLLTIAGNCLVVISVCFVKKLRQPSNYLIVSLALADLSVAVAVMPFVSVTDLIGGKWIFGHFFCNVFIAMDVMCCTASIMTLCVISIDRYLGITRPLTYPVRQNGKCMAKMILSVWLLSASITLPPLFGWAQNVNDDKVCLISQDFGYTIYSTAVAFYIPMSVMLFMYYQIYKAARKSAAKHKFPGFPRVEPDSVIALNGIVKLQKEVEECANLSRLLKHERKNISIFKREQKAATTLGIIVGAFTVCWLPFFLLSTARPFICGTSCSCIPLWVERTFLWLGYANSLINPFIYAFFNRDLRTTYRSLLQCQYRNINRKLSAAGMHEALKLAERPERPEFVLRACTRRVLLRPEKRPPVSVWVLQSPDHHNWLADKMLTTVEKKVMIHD
Source text: The general chemical structure for three particularly useful compounds of the invention (compounds III - V) are shown below: [drawing 3]

[3] = bioavailability after oral administration in rats; assay type: in vivo; conditions: comparative statement
5-HT7 receptor = 5-HT7 receptor (Rattus norvegicus, UniProt P32305); conditions: receptor expressed in mammalian cells; Shen at 18200; cited from earlier work
Chain of 5-HT7 receptor (P32305 whole entry): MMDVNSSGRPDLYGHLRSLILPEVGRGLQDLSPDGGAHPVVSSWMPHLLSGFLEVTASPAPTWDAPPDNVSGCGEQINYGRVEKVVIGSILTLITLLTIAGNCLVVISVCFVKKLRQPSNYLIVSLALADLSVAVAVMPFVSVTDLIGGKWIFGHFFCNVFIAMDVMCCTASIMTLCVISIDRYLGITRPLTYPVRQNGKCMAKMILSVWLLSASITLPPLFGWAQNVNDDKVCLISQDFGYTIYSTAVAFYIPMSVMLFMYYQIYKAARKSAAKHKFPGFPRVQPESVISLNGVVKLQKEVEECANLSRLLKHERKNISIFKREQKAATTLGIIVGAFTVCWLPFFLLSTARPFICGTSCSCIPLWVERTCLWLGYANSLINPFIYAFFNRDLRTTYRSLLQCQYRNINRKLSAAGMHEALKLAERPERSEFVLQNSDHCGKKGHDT

[4] = rings precontracted with PGF2α (10µM)
[5] = antagonist 0.3-10µM, rings precontracted with PGF2α (10µM)
[6] = antagonist 1µM, vessels under basal tone

NCCc1c[nH]c2ccc(C(N)=O)cc12 [5-CT, 5-carboxamidotryptamine]
relaxant activity as agonist in canine coronary artery [1]: potent relaxant agonist
contractile response as agonist in the presence of compound IV ([2]; basal tone, compound IV (1µm) present to block relaxation): concentration-dependently contracted
contractile response as agonist ([2]; vessels under basal tone): did not significantly contract

NCCc1c[nH]c2ccc(O)cc12 [5-HT, 5-hydroxytryptamine]
contractile response as agonist ([2]; vessels under basal tone): biphasic contractile response

COc1ccc2[nH]cc(CCN)c2c1 [5-MeOT, 5-methoxytryptamine]
contractile response as agonist ([2]; vessels under basal tone): biphasic contractile response

CC(C)n1cc2c3c(cccc31)C1CC(C(=O)NC3CCCCC3)CN(C)C1C2 (stereo not shown) [COMPOUND III]
effect on 5-HT-induced relaxation ([1]; antagonist 1µM): blocked 5-HT-induced relaxation
pA2 (-log KB) [1, 4]: 6.7
Kd (human 5-HT7 receptor; read-out: -log KD (converted)): 25.1 nM
Kd (human 5-HT7 receptor; read-out: KD): 27.1 ± 1.5 nM
bioavailability [3]: greater bioavailability than the ester compounds II and V

CC(O)C(C)OC(=O)C1CC2c3cccc4c3c(cn4C(C)C)CC2N(C)C1 (stereo not shown) [COMPOUND II]
effect on concentration-response curve to 5-HT (relaxation) [1, 5]: shifted the concentration-response curve to 5-HT significantly to the right
effect on maximum relaxant response to 5-HT [1, 5]: did not alter
pA2 (-log KB) [1, 4]: 6.5
Kd (human 5-HT7 receptor; read-out: -log KD (converted)): 631 nM
Kd (human 5-HT7 receptor; read-out: KD): 609 nM

CC(C)n1cc2c3c(cccc31)C1CC(C(=O)NC3CCCC3O)CN(C)C1C2 (stereo not shown) [COMPOUND IV]
effect on 5-HT-induced relaxation ([1]; antagonist 10-100nM): blocked 5-HT-induced relaxation
pA2 (-log KB) [1, 4]: 8.3
Kd (human 5-HT7 receptor; read-out: -log KD (converted)): 12.6 nM
Kd (human 5-HT7 receptor; read-out: KD): 13.3 ± 1.2 nM
bioavailability [3]: greater bioavailability than the ester compounds II and V
effect on sumatriptan-induced contraction ([2]; antagonist 1µM, basal tone): did not significantly affect
effect on contractile response produced by 5-HT and 5-MeOT [2, 6]: not affecting
effect on relaxant phase of the biphasic response to 5-HT and 5-MeOT [2, 6]: significantly attenuated

CN(C)CCC=C1c2ccccc2CCc2ccccc21 [amitriptyline]
affinity of the 5-HT7 receptor to the drug (5-HT7 receptor): high affinity

CNS(=O)(=O)Cc1ccc2[nH]cc(CCN(C)C)c2c1 [sumatriptan]
relaxant activity as agonist in canine coronary artery [1]: lacking relaxant activity
